We go through eleven compounds from ChEMBL document CHEMBL1201862, “PubChem BioAssay data set” (2004).

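Cells were grown in 96-well plates and exposed to each compound for 48 hours at five concentrations; endpoints were interpolated linearly between bracketing concentrations, or set to the highest concentration if not reached. GI50 marks 50% less growth.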 Activity calls are given as the source filed them. Cut-off read from the data, not from the text of the source: active = GI50 up to about 1.1 µM and inactive = higher.

Some test systems named below: UACC-62; MDA-MB-435; K562; SR; UACC-257; HCT-15; SK-OV-3; TK-10; CCRF-CEM; RPMI-8226; HL-60; NCI/ADR-RES; RXF 393; NCI-H522; HOP-62; Malme-3M; SF-539; SK-MEL-28; COLO 205; 786-0.
Common to all, as to experiment: growth of human tumour cells (NCI), 48 h

Take `CO/N=C\c1cc(O)c(O)c(/C=N/OC)c1`: the GI50 in the assay with UACC-62 is 38.8 µM (inactive); in the assay on MDA-MB-435 it was 50.5 µM (inactive); in the assay on K562, 29.8 µM (inactive); in the assay on SR, 5.83 µM (inactive); in the assay with UACC-257 it was > 100 µM (inactive); in the assay with HCT-15, 33.3 µM. The GI50 is 29.1 µM (inactive) in the assay on SK-OV-3; 86.7 µM (inactive) with TK-10; 16 µM (inactive) in the assay with CCRF-CEM; 12.5 µM (inactive) in the assay on RPMI-8226; 3.48 µM (inactive) in the assay on HL-60; 30.6 µM (inactive) with NCI/ADR-RES. In addition, the GI50 was 51.2 µM (inactive) in the assay with RXF 393; 14.1 µM (inactive) with NCI-H522; 51.4 µM (inactive) in the assay with HOP-62; 52.7 µM (inactive) in the assay with Malme-3M; 27 µM (inactive) in the assay on SF-539; > 100 µM (inactive) in the assay with SK-MEL-28. For the same compound, the GI50 in the assay on COLO 205 was 37.9 µM (inactive).
With `O=C(O)c1[nH]c(=O)[nH]c(=O)c1CN1CCCCC1`, the GI50 was > 100 µM (inactive) with UACC-62; > 100 µM (inactive) with MDA-MB-435; > 100 µM (inactive) with K562; > 100 µM (inactive) with SR; > 100 µM (inactive) in the assay on UACC-257; over 100 µM in the assay on HCT-15. Also, the GI50 is > 100 µM (inactive) with SK-OV-3; > 100 µM (inactive) in the assay on TK-10; 0.0553 µM (active) in the assay on CCRF-CEM; > 100 µM (inactive) with RPMI-8226; > 100 µM (inactive) with HL-60; > 100 µM (inactive) in the assay on 786-0. For the same compound, the GI50 in the assay with NCI/ADR-RES, with RXF 393, in the assay with NCI-H522, with HOP-62, in the assay on Malme-3M and in the assay on SK-MEL-28 was > 100 µM (inactive) throughout. In addition, the GI50 with COLO 205 was > 100 µM (inactive).
As to `Cc1ccc2c(ccc3[nH]cc(CNc4ccc(NS(C)(=O)=O)cc4)c32)n1`, the GI50 was 16.1 µM (inactive) in the assay with UACC-62; 16.8 µM (inactive) in the assay on MDA-MB-435; 18.7 µM (inactive) in the assay on K562; 21.8 µM (inactive) with SR; 19.1 µM (inactive) in the assay on UACC-257; 38.5 µM in the assay on HCT-15. The GI50 in the assay on SK-OV-3 was 27.7 µM (inactive); in the assay on TK-10 it was 37.7 µM (inactive); with CCRF-CEM, 23.6 µM (inactive); in the assay on RPMI-8226, 19.1 µM (inactive); in the assay on HL-60 it was 27.4 µM (inactive); in the assay on 786-0, 17.8 µM (inactive). Further, the GI50 with NCI/ADR-RES was 81.7 µM (inactive); with RXF 393 it was 9.14 µM (inactive); in the assay with NCI-H522, 14.9 µM (inactive); in the assay on HOP-62, 24.2 µM (inactive); in the assay on Malme-3M, 18.5 µM (inactive); in the assay on SF-539 it was 22.9 µM (inactive). Further, the GI50 is 23.4 µM (inactive) in the assay on SK-MEL-28 and 29 µM (inactive) in the assay on COLO 205.
`N=C(N)N/N=C/c1nc2n(c1[N+](=O)[O-])CCS2`: the GI50 in the assay on UACC-62 was 42.8 µM (inactive); in the assay with MDA-MB-435, 27.9 µM (inactive); with SR it was 14.5 µM (inactive); with UACC-257, 17.1 µM (inactive); with HCT-15 it was 65.3 µM; in the assay with SK-OV-3 it was 45.3 µM (inactive). Also, the GI50 in the assay on TK-10 is 40.7 µM (inactive); in the assay on RPMI-8226 it was 52 µM (inactive); with HL-60, 22.5 µM (inactive); with 786-0 it was 38.6 µM (inactive); with NCI/ADR-RES it was > 100 µM (inactive); with RXF 393, 20.8 µM (inactive). Also, the GI50 in the assay on NCI-H522 is 12.9 µM (inactive); in the assay on HOP-62, 41.4 µM (inactive); with Malme-3M, 15.6 µM (inactive); with SF-539, 29 µM (inactive); with SK-MEL-28 it was 43.7 µM (inactive); with COLO 205 it was 14 µM (inactive).
Take `O=C(/C=C/c1ccc(OCc2ccccc2)c(OCc2ccccc2)c1)OCc1ccccc1`: the GI50 is > 100 µM (inactive) in the assay on UACC-62; > 100 µM (inactive) in the assay on MDA-MB-435; > 100 µM (inactive) in the assay with K562; > 100 µM (inactive) with SR; > 100 µM (inactive) with UACC-257; over 100 µM in the assay with HCT-15. Also, the GI50 in the assay with SK-OV-3, in the assay with TK-10, in the assay with RPMI-8226, in the assay on HL-60, with 786-0 and in the assay with NCI/ADR-RES was > 100 µM (inactive) in each case. In addition, the GI50 in the assay with RXF 393, with NCI-H522, in the assay with HOP-62, in the assay with Malme-3M, in the assay with SF-539 and in the assay with SK-MEL-28 was > 100 µM (inactive) throughout. In addition, the GI50 in the assay on COLO 205 is > 100 µM (inactive).
For `CC(=O)NCCC1CNc2ccccc21` (stereo not drawn), the GI50 is > 100 µM (inactive) in the assay with UACC-62; > 100 µM (inactive) in the assay on MDA-MB-435; > 100 µM (inactive) with K562; > 100 µM (inactive) in the assay with SR; > 100 µM (inactive) in the assay on UACC-257; over 100 µM in the assay on HCT-15. In addition, the GI50 in the assay on SK-OV-3, with TK-10, in the assay on CCRF-CEM, with RPMI-8226, with HL-60 and with NCI/ADR-RES was > 100 µM (inactive) throughout. For the same compound, the GI50 in the assay on RXF 393, in the assay on NCI-H522, with Malme-3M, in the assay with SF-539, with SK-MEL-28 and with COLO 205 was > 100 µM (inactive) throughout.
`O=C1C(=O)C(CCCO)(CCCO)CCCCCCCCC1(CCCO)CCCO`: the GI50 with UACC-62 is 88.1 µM (inactive); in the assay on MDA-MB-435, 61.2 µM (inactive); in the assay on K562, 23.7 µM (inactive); in the assay on SR it was 18.6 µM (inactive); with UACC-257 it was 73.8 µM (inactive); in the assay on HCT-15, over 100 µM. Besides, the GI50 in the assay on SK-OV-3 was > 100 µM (inactive); in the assay on TK-10, 87.3 µM (inactive); with RPMI-8226, < 0.01 µM (active); in the assay on HL-60, 12.4 µM (inactive); in the assay with 786-0, > 100 µM (inactive); with NCI/ADR-RES, > 100 µM (inactive). Moreover, the GI50 in the assay on RXF 393 was 17.3 µM (inactive); with NCI-H522 it was 48.4 µM (inactive); with HOP-62, > 100 µM (inactive); in the assay on Malme-3M it was > 100 µM (inactive); with SF-539, 80.4 µM (inactive); in the assay on SK-MEL-28, 41.9 µM (inactive). Moreover, the GI50 in the assay with COLO 205 was > 100 µM (inactive).
For the compound `Nc1ccccc1C#CC(=O)c1cccc(C(F)(F)F)c1`, the GI50 with UACC-62 was 1.86 µM (inactive); in the assay on MDA-MB-435 it was 2.52 µM (inactive); with K562, 3.01 µM (inactive); in the assay with SR it was 2.27 µM (inactive); in the assay on UACC-257, 15.7 µM (inactive); in the assay on SK-OV-3, 15.3 µM (inactive). In addition, the GI50 with TK-10 is 17.2 µM (inactive); with CCRF-CEM, 0.867 µM (active); in the assay on RPMI-8226 it was 2.3 µM (inactive); in the assay with HL-60, 6.07 µM (inactive); in the assay with 786-0 it was 2.1 µM (inactive); in the assay with NCI/ADR-RES, 4.89 µM (inactive). The GI50 in the assay with RXF 393 is 2.25 µM (inactive); with NCI-H522, 1.09 µM (active); with HOP-62, 7.24 µM (inactive); in the assay with Malme-3M, 6.1 µM (inactive); in the assay with SF-539, 3.18 µM (inactive); in the assay on COLO 205 it was 1.89 µM (inactive).
Take `NC(Cc1ncccn1)C(=O)O` (stereo not drawn): the GI50 in the assay with UACC-62 was > 100 µM (inactive); in the assay with MDA-MB-435, > 100 µM (inactive); in the assay with K562, > 100 µM (inactive); with SR it was > 100 µM (inactive); with UACC-257, > 100 µM (inactive); in the assay with HCT-15, over 100 µM. Also, the GI50 with SK-OV-3, in the assay with TK-10, with CCRF-CEM, in the assay on RPMI-8226, with 786-0 and with NCI/ADR-RES was > 100 µM (inactive) each time. For the same compound, the GI50 in the assay with RXF 393, with NCI-H522, with HOP-62, with Malme-3M, with SF-539 and in the assay with SK-MEL-28 was > 100 µM (inactive) throughout. For the same compound, the GI50 with COLO 205 was > 100 µM (inactive).
On to `O=C(O)C(F)(F)C(F)(F)C(F)(F)C(F)(F)C(=O)O`, for which the GI50 is > 100 µM (inactive) in the assay with UACC-62; > 100 µM (inactive) in the assay with MDA-MB-435; > 100 µM (inactive) in the assay on K562; > 100 µM (inactive) with SR; > 100 µM (inactive) with UACC-257; over 100 µM in the assay on HCT-15. Moreover, the GI50 in the assay on SK-OV-3, in the assay on TK-10, with CCRF-CEM, with RPMI-8226, with HL-60 and in the assay with 786-0 was > 100 µM (inactive) each time. Moreover, the GI50 in the assay on NCI/ADR-RES, in the assay on RXF 393, in the assay on NCI-H522, in the assay with HOP-62, in the assay on Malme-3M and with SK-MEL-28 was > 100 µM (inactive) throughout. In addition, in the assay with COLO 205, the GI50 was > 100 µM (inactive).
As to `c1cc(C[S+]2CCCC2)sc1C[S+]1CCCC1`, the GI50 in the assay with UACC-62 was > 100 µM (inactive); with MDA-MB-435, > 100 µM (inactive); with K562, > 100 µM (inactive); in the assay on SR it was > 100 µM (inactive); with UACC-257 it was > 100 µM (inactive); in the assay on HCT-15 it was over 100 µM. Further, the GI50 in the assay with SK-OV-3, in the assay on TK-10, in the assay on CCRF-CEM, in the assay on RPMI-8226, in the assay with HL-60 and with 786-0 was > 100 µM (inactive) throughout. Moreover, the GI50 in the assay with NCI/ADR-RES, in the assay on RXF 393, in the assay with NCI-H522, with HOP-62, in the assay with Malme-3M and in the assay on SF-539 was > 100 µM (inactive) throughout. The GI50 was > 10 µM (inactive) in the assay on SK-MEL-28 and > 100 µM (inactive) with COLO 205.
